The values below come from PMC8910432 (International Journal of Molecular Sciences, 2022).

In assay [1] the target is RBD (N501Y) spike protein and human ACE2 (Severe acute respiratory syndrome coronavirus 2, UniProt P0DTC2, N501Y). Type of assay: binding, SARS-CoV-2; human. Conditions: for inhibitory effect on interaction between RBD (N501Y) spike protein and human ACE2: 10 µM.
For another assay, the target named is RBD (N501Y) (Severe acute respiratory syndrome coronavirus 2, UniProt P0DTC2, N501Y). Type of assay: binding, SARS-CoV-2.

As for `OC[C@H]1O[C@@H](Oc2cc3c(O)cc(O)cc3[o+]c2-c2ccc(O)cc2)[C@H](O)[C@@H](O)[C@@H]1O` [pelargonidin-3-O-glucoside], the “inhibitory effect on interaction between RBD (N501Y) spike protein and human ACE2” value (“inhibitory effect” for short) in assay [1] is “only TA, TGG, and corilagin show a significant inhibitory effect”.

In the case of `O=C(OC[C@H]1O[C@@H](OC(=O)c2cc(O)c(O)c(O)c2)[C@H](O)[C@@H](OC(=O)c2cc(O)c(O)c(O)c2)[C@@H]1O)c1cc(O)c(O)c(O)c1` [TGG, 1,3,6-tri-O-galloyl-β-D-glucose], in assay [1], the “concentration from which inhibition is significant” value is reported as not below 0.1 µM; the “inhibitory effect” value is on record as “up to 50%”.

On to `COc1cc(-c2[o+]c3cc(O)cc(O)c3cc2O[C@@H]2O[C@H](CO)[C@@H](O)[C@H](O)[C@H]2O)cc(OC)c1O` [malvidin-3-O-glucoside], for which the “inhibitory effect” value in assay [1] was “only TA, TGG, and corilagin show a significant inhibitory effect”. With `O=C(O[C@@H]1O[C@@H]2COC(=O)c3cc(O)c(O)c(O)c3-c3c(cc(O)c(O)c3O)C(=O)O[C@H]([C@H]1O)[C@@H]2O)c1cc(O)c(O)c(O)c1` [corilagin, β-1-O-galloyl-3,6-(R)-hexahydroxydiphenoyl-D-glucose], in assay [1], the “concentration from which inhibition is significant” value is listed as not below 0.1 µM; the “inhibitory effect” value is listed as “up to 50%”. Regarding `O=C(OC[C@H]1OC(OC(=O)c2cc(O)c(O)c(OC(=O)c3cc(O)c(O)c(O)c3)c2)[C@H](OC(=O)c2cc(O)c(O)c(OC(=O)c3cc(O)c(O)c(O)c3)c2)[C@@H](OC(=O)c2cc(O)c(O)c(OC(=O)c3cc(O)c(O)c(O)c3)c2)[C@@H]1OC(=O)c1cc(O)c(O)c(OC(=O)c2cc(O)c(O)c(O)c2)c1)c1cc(O)c(O)c(OC(=O)c2cc(O)c(O)c(O)c2)c1` (stereo partly drawn) [TA, 1,2,3,4,6-penta-O-{3,4-dihydroxy-5-((3,4,5-trihydroxybenzoyl)oxy)benzoyl}-D-glucopyranose], the “TA adsorption onto RBD (QCMD)” value at RBD (N501Y) is recorded as “amount of TA adsorbed increases with TA concentration”. Moreover, in assay [1], the “concentration from which inhibition is significant” value is recorded as not below 0.1 µM; the “reduction of the binding between RBD (N501Y) spike protein and ACE2” value is “up to 95%”; the “inhibitory effect” value was “up to 50%”. For cyanidin-3-O-glucoside, the “inhibitory effect” value in assay [1] is “only TA, TGG, and corilagin show a significant inhibitory effect”.
